According to patent US20220193202A1, “PARATHYROID HORMONE DERIVATIVE IN DIMERIC FORM OF PARATHYROID HORMONE FRAGMENT AND PHARMACEUTICAL COMPOSITION FOR PREVENTION OR TREATMENT OF BONE DISEASES COMPRISING SAME” (GACHON UNIVERSITY OF INDUSTRY-ACADEMIC COOPERATION …, priority 2019, published 2022):

Columns and labels:
Assay type in all cases: in vivo, C57BL6 male mice
[1] = tested on: trabecular bones of the femurs; experiment: micro-CT of femur of opposite limb (trabecular bone formation); settings: 100 μg/kg subcutaneously daily Day 1 to Day 13, Day 14, compared with control, PTH(1-34) and monomeric [Cys25]PTH(1-34) groups
Protocol: (§1) Five 10-week-old C57BL6 male mice were prepared for each group, and fracture model surgery was performed in the following manner (see FIG. 3). In particular, 9 days before (-D9) and 6 days before (-D6) prior to fracture model surgery (DO) in mice of each group, infrared fluorescent dyes (IR Dyes, Infra-Red dyes) were administered through a tail vein of the mice. Then, the mice were general anesthetized using isoflurane containing oxygen (O2) for fracture model surgery, and a left hind limb was shaved and sterilized for surgery. An incision of about 15 mm was made in the left hind limb in the longitudinal direction, and the tibia was exposed by obtuse-angled resection of the muscle. Then, transverse osteotomy was performed using disc-shaped dental steel bars at the midpoint of the tibia. After repositioning the fracture site, the entire length of a bone marrow lumen was made internally stabilized. After washing it with saline, the skin was sutured with nylon sutures. In particular, the fracture animal models prepared in Example 2 was divided into a control group, PTH(1-34), monomeric [[…]]PTH(1-34), and dimeric [[…]]PTH(1-34) administration groups (n=5 animals per group). […] In addition, the femurs of an opposite limb of the animal models were collected and analyzed by micro-CT equipment to evaluate the degree of bone formation in the trabecular bones of the femurs.

fracture animal model [2] = experiment: IVIS imaging of fracture site in fracture animal model; settings: 100 μg/kg subcutaneously daily Day 1 to Day 13 after fracture surgery; imaged Day 4, 7, 11, 14
Protocol: Five 10-week-old C57BL6 male mice were prepared for each group, and fracture model surgery was performed in the following manner (see FIG. 3). In particular, 9 days before (-D9) and 6 days before (-D6) prior to fracture model surgery (DO) in mice of each group, infrared fluorescent dyes (IR Dyes, Infra-Red dyes) were administered through a tail vein of the mice. Then, the mice were general anesthetized using isoflurane containing oxygen (O2) for fracture model surgery, and a left hind limb was shaved and sterilized for surgery. An incision of about 15 mm was made in the left hind limb in the longitudinal direction, and the tibia was exposed by obtuse-angled resection of the muscle. Then, transverse osteotomy was performed using disc-shaped dental steel bars at the midpoint of the tibia. After repositioning the fracture site, the entire length of a bone marrow lumen was made internally stabilized. […] On Day 4, Day 7, Day 11, and Day 14 after the surgery, fracture sites of mice per each group were photographed and analyzed using IVIS Lumina XR (Caliper Life Sciences, USA) equipment and Living Image software. The results as shown in FIG. 4 confirmed that when the dimeric [[…]]PTH(1-34) was administered, an intensity of fluorescence was increased at the site where the fracture was healing. […] Therefore, intensifying of the fluorescence means that bone formation increased.

fracture animal model [3] = experiment: 3D-micro CT of tibia including fracture site (callus formation); settings: 100 μg/kg subcutaneously daily Day 1 to Day 13; tibia collected Day 14
Protocol: as §1, with “The collected shin bones” for “In addition, the femurs of an opposite limb of the animal models”, “imaged” for “collected”, “using 3D-micro CT (Microfocus X-ray CT system SMX-90CT, Shimadzu, Japan) equipment.” for “by micro-CT equipment to evaluate the degree of bone formation in the trabecular bones of the femurs.”

Substance: dimeric [Cys25]PTH(1-34): Dimeric form of parathyroid hormone fragment PTH(1-34) with Arg25 substituted by Cys (SEQ ID NO: 1), disulfide bond between cysteines
- bone formation in the trabecular bones of the femurs (micro-CT, FIG. 8) [1]: greatest increase
- bone formation, average of photon flux (FIG. 5) (fracture animal model [2]): significantly increased
- intensity of fluorescence at the site where the fracture was healing (IVIS imaging, FIG. 4) (fracture animal model [2]): increased
- callus formation (3D-micro CT, FIG. 6) (fracture animal model [3]): promoted
- callus volume (FIG. 7) (fracture animal model [3]): notably increased
